{
  "source": "patent US12116593B2",
  "about": "“Method for producing adenohypophysis or precursor tissue thereof” (RIKEN, priority 2014, dated 2024)",
  "key": {"Human ES cells (KhES-1)": {"tested_on": "Human ES cells (KhES-1)", "assay": "Differentiation of human ES cell aggregates in serum-free suspension culture (SFEBq), fluorescent antibody method", "assay_type": "cell-based", "excerpt": "Human ES cells (KhES-1) were subjected to maintenance culture by a conventional method on MEF and used. To monitor differentiation induction into a hypothalamus tissue, KhES-1 wherein Venus cDNA is knocked-in into the gene of Rx which is a hypothalamus neuroepithelium marker was used. To differentiate human ES cells by serum-free suspension culture of aggregate (SFEBq method), human ES cells were dispersed to single cells by enzyme by the method of Nakano et al. (Cell Stem Cell, 2012), and reaggregated in a low cell adhesive V-bottom 96 well plate (SUMITOMO BAKELITE). 5,000 cells were seeded per well, and cultured in the following differentiation medium at 5% CO2, 37° C. gfCDM medium (growth-factor-free Chemically Defined Medium; Wataya et al., PNAS, 2008)+5% KSR (Invitrogen).\nWith the day of seeding as day 0 of differentiation culture, 20 μM Y-27632 (ROCK inhibitor; inhibitor of cell death during dispersion: Watanabe et al., Nature Biotechnology, 2007) was added from day 0 to day 3, and a half of the medium was exchanged with a differentiation medium free of Y-27632 on days 3 and 6 of culture. From day 3 to day 18 of culture, BMP4 (final concentration 5 nM) was added to the medium. On and after day 18, a half of the medium was exchanged every 3 days with a medium free of BMP4. […] On and after day 18, the oxygen partial pressure during the culture was set to 40%. Tissue differentiation was analyzed by a fluorescent antibody method.\nThe cell aggregates derived from human ES cells and simultaneously containing ventral hypothalamus tissue and epidermal placode were formed by the method of Example 1, culture was continued until day 27 or day 30 of culture under similar conditions, and the aggregates were analyzed by a fluorescent antibody method. In some culture, FGF2 (final concentration 20 ng/ml) was added to the medium from day 15 of culture.\nBy the method of Example 1, an influence of the presence or absence of BMP4 addition on the differentiation of cell aggregates was analyzed by a fluorescent antibody method.\nBy the method of Example 1, an influence of the presence or absence of the addition of hedgehog signal agonist SAG on the differentiation of cell aggregate was analyzed by a fluorescent antibody method.\nIn addition to the method of Example 8, differentiation of hypophysial placode reacted with Notch signal inhibitor DAPT (10 μM) from day 72 to day 82 of culture was analyzed by a fluorescent antibody method."}, "Tbx19": {"tested_on": "Tbx19", "assay": "Tbx19 expression in aggregates by qPCR", "assay_type": "cell-based, human", "details": "DAPT 10 μM day 65 to 74; aggregates on day 74", "description": "According to the method of Example 5, hypophysial placode derived from human ES cells was formed, and cultured for a long term. DAPT (10 μM), a Notch signal inhibitor, was allowed to act thereon from day 65 to day 74 of culture, and the effect thereof was analyzed by a qPCR method."}, "[1]": {"tested_on": "aggregates containing ACTH-producing cells", "assay": "In vitro ACTH release from aggregates containing ACTH-producing cells, ELISA", "assay_type": "cell-based, human", "details": "37° C.", "description": "In vitro hormone secretory capacity was analyzed using the aggregates containing ACTH-producing cells produced by the method of Example 5. Using a 1.5 ml Eppendorf tube containing 250 μl of HBSS(−) containing 16 aggregates at day 80 of culture, the aggregates were incubated in the presence or absence of CRH (1 μg/ml) at 37° C. for 10 min. The concentration of ACTH in the culture supernatant was quantified by the ELISA method.\nFurthermore, to examine feedback suppressive ability due to downstream hormone (glucocorticoid), 16 aggregates on day 80 of culture were preincubated in the presence or absence of hydrocortisone (20 μg/ml) at 37° C. for 3 hr, and the effect of release of ACTH after CRH treatment was analyzed."}, "[2]": {"tested_on": "aggregate containing GH-producing cells", "assay": "In vitro GH release from aggregates containing GH-producing cells, ELISA", "assay_type": "cell-based, human", "details": "GRF 100 ng/ml, 37° C., 30 min; aggregates differentiated with hydrocortisone 1 μg/ml days 72-84; day 84", "description": "In addition to the method of Example 10, in vitro hormone secretory capacity was analyzed using the aggregate containing GH-producing cells differentiated in a medium containing hydrocortisone (1 μg/ml) from days 72 to 84 of culture. Using a 1.5 ml Eppendorf tube containing 500 μl of HBSS containing 33 aggregates at day 84 of culture, the aggregates were incubated in the presence or absence of GRF (100 ng/ml) at 37° C. for 30 min. The concentration of GH in the culture supernatant was quantified by the ELISA method.\nIn addition to the method of Example 10, in vitro hormone secretory capacity was analyzed using the aggregate containing GH-producing cells differentiated in a medium containing dexamethasone (40 ng/ml) from days 70 to 84 of culture. Using a 1.5 ml Eppendorf tube containing 750 μl of a medium containing 30 aggregates at day 84 of culture, the aggregates were incubated in the presence of GRF (0.1, 1, 10 μg/ml) at 37° C. for 30 min. The concentration of GH in the culture supernatant was quantified by the ELISA method. In addition, in order to investigate a potential of somatostatin to suppress GH secretion, 18 aggregates at day 98 of culture were incubated in the presence or absence of somatostatin (100 ng/ml) at 37° C. for 90 min, and effects on GH release after GRF treatment were analyzed."}, "mouse system": {"tested_on": "mouse system", "assay": "Exogenous BMP4 added to mouse system", "assay_type": "cell-based"}, "[3]": {"details": "SAG 2 μM from day 6, with BMP4, day 24 and 27"}, "[4]": {"details": "BMP4 5 nM day 3-18 vs no addition, day 24"}},
  "note": "Ends that are not written are not given here.",
  "data": [
    {"compound": "CN[C@H]1CC[C@H](N(Cc2cccc(-c3ccncc3)c2)C(=O)c2sc3ccccc3c2Cl)CC1", "note": "[SAG, 3-Chloro-N-[trans-4-(methylamino)cyclohexyl]-N-[[3-(4-pyridinyl)phenyl]methyl]-benzo[b]thiophene-2-carboxamide]", "values": [
      {"measurement": "tissue differentiated under BMP4 non-addition conditions", "setting": "Human ES cells (KhES-1); BMP4 not added, SAG 200 nM d6-25, day 24", "value": "FoxG1-positive and Nkx2.1-positive basal ganglion was differentiated"},
      {"measurement": "formation of hypophysial placode on the surface", "setting": "Human ES cells (KhES-1); [3]", "value": "hypophysial placode was formed on the surface"},
      {"measurement": "tissue formed in the inside of the aggregates", "setting": "Human ES cells (KhES-1); [3]", "value": "ventral hypothalamus tissue (Rx::Venus-positive, Chx10-negative, Nkx2.1-positive) was formed in the inside of the aggregates"}
    ]},
    {"compound": "C[C@H](NC(=O)Cc1cc(F)cc(F)c1)C(=O)N[C@H](C(=O)OC(C)(C)C)c1ccccc1", "note": "[DAPT, N—[N-(3,5-difluorophenacetyl)-1-alanyl]-S-phenylglycine t-butyl ester]", "values": [
      {"measurement": "endocrine cells found in hypophysial placode after DAPT", "setting": "Human ES cells (KhES-1); DAPT 10 μM day 72 to 82", "value": "LH-producing cells and FSH-producing cells were found in the hypophysial placode"},
      {"measurement": "increase of Tbx19 expression vs non-treatment group", "setting": "Tbx19", "value": "≥ 8", "unit": "times"}
    ]},
    {"compound": "CRH: hypothalamic stimulus inducing release of ACTH from ACTH-producing cells (SEEPPISLDLTFHLLREVLEMARAEQLAQQAHSNRKLMEII; ends and bridges not checked; UniProt P06850 154-194, looked up)", "values": [
      {"measurement": "ACTH concentration in culture supernatant vs incubation in absence of CRH", "setting": "[1]; CRH 1 μg/ml, 10 min, 16 aggregates at day 80", "value": "not less than 5 fold"}
    ]},
    {"compound": "C[C@]12CCC(=O)C=C1CC[C@@H]1[C@@H]2[C@@H](O)C[C@@]2(C)[C@H]1CC[C@]2(O)C(=O)CO", "note": "[hydrocortisone]", "values": [
      {"measurement": "ACTH concentration after CRH treatment relative to preincubation without hydrocortisone", "setting": "[1]; hydrocortisone 20 μg/ml preincubation 3 hr, day 80 aggregates", "value": "less than one-sevenths"}
    ]},
    {"compound": "FGF2: known cytokine also called basic fibroblast growth factor (bFGF)", "values": [
      {"measurement": "increase of formation of hypophysial placode", "setting": "Human ES cells (KhES-1); FGF2 20 ng/ml from day 15 of culture, day 27/30 aggregates", "value": 30, "unit": "%"}
    ]},
    {"compound": "GRF: stimulus inducing release of GH from GH-producing cells (YADAIFTNSYRKVLGQLSARKLLQDIMSRQQGESNQERGARARL; ends and bridges not checked; UniProt P01286 32-75, looked up)", "values": [
      {"measurement": "GH concentration in culture supernatant vs incubation in absence of GRF", "setting": "[2]", "value": "not less than 6 fold"}
    ]},
    {"compound": "BMP4: bone morphogenetic factor signal transduction pathway activating substance; a known cytokine", "values": [
      {"measurement": "differentiation of neural tissue in the aggregate", "setting": "Human ES cells (KhES-1); [4]", "value": "differentiation induction of neural tissue of hypothalamus"},
      {"measurement": "formation of surface ectoderm", "setting": "Human ES cells (KhES-1); [4]", "value": "active formation of surface ectoderm"},
      {"measurement": "formation of neuroepithelial tissue (hypothalamus) inside the cell aggregate", "setting": "mouse system", "value": "acted inhibitingly on the formation of the neuroepithelial tissue (hypothalamus)"},
      {"measurement": "formation of surface ectoderm", "setting": "mouse system", "value": "promoted formation of surface ectoderm"}
    ]}
  ]
}
